Columns and labels:
cathepsin B (CTSB) = biological target: T1, cathepsin B (CTSB) (Homo sapiens, UniProt P07858); test: Mapping and competition of FFF probe-modified peptide on cathepsin B (CTSB); format: binding; settings: active-site proximal peptide
T1 construct: endogenous in cells; host or cells: HEK293T
Protocol: (§1) Preparation and analysis was adapted from methods previously reported. In brief, for global mapping of fragment probe-modified peptides, separate 10 cm dishes of cells were treated with probes (200-250 μM) in 3.0 mL of DMEM (serum-free) and (if applicable) competitor ligands, proteomes harvested and subjected to click chemistry conditions with either light or heavy isotopically labeled biotin-TEV-azide (10 μL of 5 mM stocks in DMSO, final concentration=100 μM), TCEP, ligand and CuSO4 as detailed above. The samples were allowed to react for 1 h at which point the samples were centrifuged (16,000 g, 5 min, 4° C.). The resulting pellets were sonicated in ice-cold methanol (500 μL) and the resuspended light- and heavy-labeled samples were then combined and centrifuged (16,000 g, 5 min, 4° C.). The pellets were then solubilized in PBS containing 1.2% SDS (1 mL) with sonication and heating (5 min, 95° C.). Samples were transferred to falcon tubes containing DPBS (5 mL), to which a 100 μL of streptavidin-agarose beads slurry was added. […]
(§2) The resulting probe-modified peptides were collected for MS analysis, which was performed as described above with differences in the salt bumps applied in the chromatographic gradients which in this case were 0%, 30%, 60%, 90% and 100% NH4OAc (500 μM). […] The isoTOP ratios for probe labeled peptides were quantified using the in-house software CIMAGE. […]

YWHAE = biological target: T2, YWHAE (Homo sapiens, UniProt P62258); test: Mapping of FFF probe-modified peptide on YWHAE; format: binding; settings: for Labeled Peptide (residues) of YWHAE 14-3-3 protein epsilon: P62258, PDB 3UBW
T2 construct: endogenous in cells; host or cells: human cells (HEK293T; a subset of probes also in K562)
T2 sequence (P62258 1-255): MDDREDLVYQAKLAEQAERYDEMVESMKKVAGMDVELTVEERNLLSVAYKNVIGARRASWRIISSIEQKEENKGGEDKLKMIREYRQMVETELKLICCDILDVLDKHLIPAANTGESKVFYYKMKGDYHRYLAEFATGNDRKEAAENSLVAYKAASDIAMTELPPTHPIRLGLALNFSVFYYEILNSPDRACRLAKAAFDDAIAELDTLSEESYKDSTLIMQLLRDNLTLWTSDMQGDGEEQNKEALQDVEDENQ
Protocol: as §1, with “added. After incubation, the beads (3 hr) were pelleted by centrifugation (1,400 g, 3 min) and were washed (2×10 mL PBS and 2×10 mL water). The beads were transferred to eppendorf tubes with 1 mL DPBS, centrifuged (1,400 g, 3 min), and resuspended in PBS containing 6 M urea. To this was added 10 mM DTT (25 μL of a 200 mM stock in water) and the beads were incubated at 65° C. for 15 mins. 20 mM iodoacetamide (25 μL of a 400 mM stock in water) was then added and allowed to react at 37° C. for 30 mins with shaking. The bead mixture was diluted with 900 μL PBS, pelleted by centrifugation (1,400 g, 3 min), and resuspended in 200 μL 2M urea (DPBS) containing trypsin and CaCl2 as described above.” for “added.”
as §2

probe-modified peptide in CTSB (cathepsin B (CTSB)) | Labeled Peptide (residues) of YWHAE 14-3-3 protein epsilon (YWHAE; peptide AAFDDAIAELDTLSEESYK) | Labeled Peptide (residues) of YWHAE 14-3-3 protein epsilon (YWHAE; peptide EAAENSLVAYK) | probe-modified peptide in YWHAE (YWHAE; lines the primary interaction cleft for MLF1) | SMILES
aa 315-332 | – | – | – | C#CCCC1(CCC(=O)Nc2ccc(C3CCNCC3)cc2)N=N1 [probe 9, 3-(3-(But-3-yn-1-yl)-3H-diazirin-3-yl)-N-(4-(piperidin-4-yl)phenyl)propanamide]
– | 197-215 | 143-153 | aa 197-215 | C#CCCC1(CCC(=O)N2CCCCC2Cc2ccccc2)N=N1 (stereo not shown) [probe 13, 1-(2-Benzylpiperidin-1-yl)-3-(3-(but-3-yn-1-yl)-3H-diazirin-3-yl)propan-1-one]

Reference: US11535597B2, “Photoreactive ligands and uses thereof” (The Scripps Research Institute, priority 2017, dated 2022)
